According to patent publication US20250134146A1, “FLAVANONE COMPOUNDS AND THEIR USE AS FLAVOR MODIFIERS” (Firmenich Incorporated, priority 2022, published 2025):

Experiments:
Human Panelists [1] = assay: sensory evaluation of sweetness of 6% sucrose solution containing Compound at its Threshold Concentration, relative to pure sucrose solutions; assay type: in vivo; conditions: 6% sucrose solution plus Compound at its Threshold Concentration, compared with pure sucrose solutions
From the text: (§1) Test samples containing selected experimental compounds were sensory evaluated for sweetness intensity relative to 1.5% sucrose solution by a trained sensory panel of at least 8 panelists. The highest concentration of a Compound which panelists determined to be less sweet than 1.5% sucrose solution was set as its Threshold Concentration (TC). Next, panelists evaluated the sweetness of 6% sucrose solution containing each Compound at its Threshold Concentration (TC), relative to pure sucrose solutions at varying concentrations. Table 5 summarizes the sensory evaluation data for compounds 101,102, 105, 107 and 122-125, 127, 128.

Human Panelists [2] = assay: sensory evaluation of sweetness intensity relative to 1.5% sucrose solution (Threshold Concentration); assay type: in vivo; conditions: highest concentration judged less sweet than 1.5% sucrose solution, trained sensory panel of at least 8 panelists
From the text: as §1

T1R sweet taste receptor = molecular target: T1, T1R sweet taste receptor (Homo sapiens, UniProt Q7RTX0+Q8TE23); assay: in vitro cell-based assay, cells overexpressing the T1R sweet taste receptor; sweet dose-response curves; conditions: cells that overexpress the T1R sweet taste receptor; calculated from sweet dose-response curves
T1 construct: expressed in transfected cells
T1 sequence (Q8TE23 20-839): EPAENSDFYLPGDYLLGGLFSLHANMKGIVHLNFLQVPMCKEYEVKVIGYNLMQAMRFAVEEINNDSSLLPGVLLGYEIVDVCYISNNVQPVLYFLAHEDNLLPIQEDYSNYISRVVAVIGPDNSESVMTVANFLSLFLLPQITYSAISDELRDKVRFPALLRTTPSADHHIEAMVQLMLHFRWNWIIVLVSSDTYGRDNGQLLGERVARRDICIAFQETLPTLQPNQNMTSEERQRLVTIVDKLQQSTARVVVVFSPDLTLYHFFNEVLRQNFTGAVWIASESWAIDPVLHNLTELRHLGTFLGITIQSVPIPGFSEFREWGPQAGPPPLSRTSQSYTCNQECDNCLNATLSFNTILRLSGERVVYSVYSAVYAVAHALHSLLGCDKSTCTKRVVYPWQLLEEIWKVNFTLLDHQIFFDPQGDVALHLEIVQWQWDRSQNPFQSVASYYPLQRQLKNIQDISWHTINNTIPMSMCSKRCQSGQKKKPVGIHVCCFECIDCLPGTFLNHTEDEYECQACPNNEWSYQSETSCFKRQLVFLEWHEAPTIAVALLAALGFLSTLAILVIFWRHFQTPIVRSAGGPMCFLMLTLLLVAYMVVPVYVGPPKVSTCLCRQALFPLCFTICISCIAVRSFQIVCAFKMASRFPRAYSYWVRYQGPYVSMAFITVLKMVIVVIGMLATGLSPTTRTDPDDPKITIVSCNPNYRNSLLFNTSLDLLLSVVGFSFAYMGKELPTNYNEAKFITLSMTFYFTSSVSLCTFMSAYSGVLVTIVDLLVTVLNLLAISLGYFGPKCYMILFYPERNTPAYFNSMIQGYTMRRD
T1 sequence (Q7RTX0 21-852): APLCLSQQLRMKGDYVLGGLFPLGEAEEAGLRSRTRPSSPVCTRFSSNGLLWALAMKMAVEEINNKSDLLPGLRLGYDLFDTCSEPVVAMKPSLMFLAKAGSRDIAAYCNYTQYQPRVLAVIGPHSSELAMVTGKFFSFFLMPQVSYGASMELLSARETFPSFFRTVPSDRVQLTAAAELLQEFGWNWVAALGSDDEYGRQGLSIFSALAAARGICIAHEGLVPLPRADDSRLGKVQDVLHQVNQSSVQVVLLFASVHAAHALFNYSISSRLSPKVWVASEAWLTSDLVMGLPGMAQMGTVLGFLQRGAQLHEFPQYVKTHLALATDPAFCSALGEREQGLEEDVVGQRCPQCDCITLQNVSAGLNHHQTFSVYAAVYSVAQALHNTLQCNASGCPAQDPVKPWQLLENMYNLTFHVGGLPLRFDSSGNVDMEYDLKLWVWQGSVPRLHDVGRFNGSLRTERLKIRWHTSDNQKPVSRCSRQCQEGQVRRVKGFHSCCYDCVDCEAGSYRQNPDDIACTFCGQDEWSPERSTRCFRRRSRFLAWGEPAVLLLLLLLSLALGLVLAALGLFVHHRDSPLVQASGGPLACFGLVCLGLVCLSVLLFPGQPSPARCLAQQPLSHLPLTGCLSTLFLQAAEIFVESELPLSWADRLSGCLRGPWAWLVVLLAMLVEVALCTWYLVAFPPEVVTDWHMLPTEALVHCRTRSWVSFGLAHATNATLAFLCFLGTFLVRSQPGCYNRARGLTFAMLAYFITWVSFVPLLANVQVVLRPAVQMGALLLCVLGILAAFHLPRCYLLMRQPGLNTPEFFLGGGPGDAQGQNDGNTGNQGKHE
Protocol: Each of Compounds 101-107, 113, and 117-129 was either synthesized or separated from the corresponding synthetic racemate. Thereafter, the compounds were tested in an in vitro cell-based assay having cells that overexpress the T1R sweet taste receptor. The sweet dose-response curves were recorded and the EC50 was calculated. Table 4 sets forth the calculated EC50 values for the compounds tested.

CO[C@@H]1C(=O)c2c(O)cc(O)cc2O[C@H]1c1ccc(O)cc1 (racemic) [Compound 101, (trans)-5,7-dihydroxy-2-(4-hydroxyphenyl)-3-methoxychroman-4-one]
Sucrose concentration of equal sweetness to (6% sucrose + Compound at its TC) (Human Panelists [1]): ≥7.5%
Threshold Concentration (TC) - less sweet than 1.5% sucrose (Human Panelists [2]): 11 ppm
Threshold Concentration (TC) - less sweet than 1.5% sucrose (Human Panelists [2]; value in brackets): 36 µM

COc1ccc([C@@H]2Oc3cc(O)cc(O)c3C(=O)[C@H]2OC)cc1O (racemic) [Compound 102, (trans)-5,7-dihydroxy-2-(3-hydroxy-4-methoxyphenyl)-3-methoxychroman-4-one]
Sucrose concentration of equal sweetness to (6% sucrose + Compound at its TC) (Human Panelists [1]): ≥7.5%
EC50 (T1R sweet taste receptor): 1 µM
Threshold Concentration (TC) - less sweet than 1.5% sucrose (Human Panelists [2]): 4 ppm
Threshold Concentration (TC) - less sweet than 1.5% sucrose (Human Panelists [2]; value in brackets): 12 µM

COc1ccc([C@@H]2Oc3cccc(O)c3C(=O)[C@H]2OC)cc1O (racemic) [Compound 105, (trans)-5-hydroxy-2-(3-hydroxy-4-methoxyphenyl)-3-methoxychroman-4-one]
Sucrose concentration of equal sweetness to (6% sucrose + Compound at its TC) (Human Panelists [1]): ≥7.5%
EC50 (T1R sweet taste receptor): 0.1 µM
Threshold Concentration (TC) - less sweet than 1.5% sucrose (Human Panelists [2]): 1.5 ppm
Threshold Concentration (TC) - less sweet than 1.5% sucrose (Human Panelists [2]; value in brackets): 4.8 µM

COc1ccc([C@@H]2Oc3cc(O)ccc3C(=O)[C@H]2OC)cc1O (racemic) [Compound 107, (trans)-7-hydroxy-2-(3-hydroxy-4-methoxyphenyl)-3-methoxychroman-4-one]
Sucrose concentration of equal sweetness to (6% sucrose + Compound at its TC) (Human Panelists [1]): ≥7.5%
EC50 (T1R sweet taste receptor): 7 µM
Threshold Concentration (TC) - less sweet than 1.5% sucrose (Human Panelists [2]): 11 ppm
Threshold Concentration (TC) - less sweet than 1.5% sucrose (Human Panelists [2]; value in brackets): 35 µM

CO[C@@H]1C(=O)c2ccc(O)cc2O[C@H]1c1ccc(O)cc1 (relative stereo) [Compound 106, (trans)-7-hydroxy-2-(4-hydroxyphenyl)-3-methoxychroman-4-one]
EC50 (T1R sweet taste receptor): 92 µM

COc1cc(O)c2c(c1)O[C@@H](c1ccc(OC)c(O)c1)[C@H](OC)C2=O (relative stereo) [Compound 113, (trans)-5-hydroxy-2-(3-hydroxy-4-methoxyphenyl)-3,7-dimethoxychroman-4-one]
EC50 (T1R sweet taste receptor): 25 µM

CCO[C@@H]1C(=O)c2c(O)cc(O)cc2O[C@H]1c1ccc(OC)c(O)c1 (relative stereo) [Compound 117, (trans)-5,7-dihydroxy-2-(3-hydroxy-4-methoxyphenyl)-3-ethoxychroman-4-one]
EC50 (T1R sweet taste receptor): 1 µM

CCO[C@@H]1C(=O)c2c(O)cc(O)cc2O[C@H]1c1ccc(O)cc1 (relative stereo) [Compound 118, (trans)-5,7-dihydroxy-2-(4-hydroxyphenyl)-3-ethoxychroman-4-one]
EC50 (T1R sweet taste receptor): 30 µM

CCO[C@@H]1C(=O)c2c(O)cccc2O[C@H]1c1ccc(OC)c(O)c1 (relative stereo) [Compound 119, (trans)-5-hydroxy-2-(3-hydroxy-4-methoxyphenyl)-3-ethoxychroman-4-one]
EC50 (T1R sweet taste receptor): 0.4 µM

CO[C@@H]1C(=O)c2c(O)cc(O)cc2O[C@H]1c1cc(O)c(O)c(O)c1 (relative stereo) [Compound 121, (trans)-2-(3,4,5-trihydroxyphenyl)-5,7-dihydroxy-3-methoxychroman-4-one]
EC50 (T1R sweet taste receptor): 180 µM

CO[C@@H]1C(=O)c2c(O)cc(O)cc2O[C@H]1c1ccc(O)cc1 (relative stereo) [Compound 125, (−)-(trans)-5,7-dihydroxy-2-(4-hydroxyphenyl)-3-methoxychroman-4-one]
EC50 (T1R sweet taste receptor): > 100 µM

COc1ccc([C@@H]2Oc3cccc(O)c3C(=O)[C@H]2OC)cc1O (relative stereo) [Compound 127, (−)-(trans)-5-hydroxy-2-(3-hydroxy-4-methoxyphenyl)-3-methoxychroman-4-one]
EC50 (T1R sweet taste receptor): 1 µM

COc1ccc([C@@H]2Oc3cc(O)ccc3C(=O)[C@H]2OC)cc1O (relative stereo) [Compound 129, (−)-(trans)-7-hydroxy-2-(3-hydroxy-4-methoxyphenyl)-3-methoxychroman-4-one]
EC50 (T1R sweet taste receptor): > 200 µM

COc1ccc([C@H]2Oc3cc(O)cc(O)c3C(=O)[C@@H]2OC)cc1O (single isomer, unassigned) [Compound 122, (+)-(trans)-5,7-dihydroxy-2-(3-hydroxy-4-methoxyphenyl)-3-methoxychroman-4-one]
Sucrose concentration of equal sweetness to (6% sucrose + Compound at its TC) (Human Panelists [1]): ≥8.0%,
EC50 (T1R sweet taste receptor): 0.7 µM
Threshold Concentration (TC) - less sweet than 1.5% sucrose (Human Panelists [2]): 2.5 ppm
Threshold Concentration (TC) - less sweet than 1.5% sucrose (Human Panelists [2]; value in brackets): 7.5 µM

CO[C@H]1C(=O)c2c(O)cc(O)cc2O[C@@H]1c1ccc(O)cc1 (stereo in doubt) [Compound 124, (+)-(trans)-5,7-dihydroxy-2-(4-hydroxyphenyl)-3-methoxychroman-4-one]
Sucrose concentration of equal sweetness to (6% sucrose + Compound at its TC) (Human Panelists [1]): ≥8.0%
EC50 (T1R sweet taste receptor): 10 µM
Threshold Concentration (TC) - less sweet than 1.5% sucrose (Human Panelists [2]): 5 ppm
Threshold Concentration (TC) - less sweet than 1.5% sucrose (Human Panelists [2]; value in brackets): 16 µM

COc1ccc([C@H]2Oc3cccc(O)c3C(=O)[C@@H]2OC)cc1O (stereo in doubt) [Compound 126, (+)-(trans)-5-hydroxy-2-(3-hydroxy-4-methoxyphenyl)-3-methoxychroman-4-one]
EC50 (T1R sweet taste receptor): 0.03 µM

COc1ccc([C@H]2Oc3cc(O)ccc3C(=O)[C@@H]2OC)cc1O (stereo in doubt) [Compound 128, (+)-(trans)-7-hydroxy-2-(3-hydroxy-4-methoxyphenyl)-3-methoxychroman-4-one]
Sucrose concentration of equal sweetness to (6% sucrose + Compound at its TC) (Human Panelists [1]): ≥8.0%
EC50 (T1R sweet taste receptor): 9 µM
Threshold Concentration (TC) - less sweet than 1.5% sucrose (Human Panelists [2]): 5 ppm
Threshold Concentration (TC) - less sweet than 1.5% sucrose (Human Panelists [2]; value in brackets): 16 µM

COC1C(=O)c2c(O)cccc2OC1c1ccc(O)cc1 (stereo not drawn) [Compound 104, (trans)-5-hydroxy-2-(4-hydroxyphenyl)-3-methoxychroman-4-one]
EC50 (T1R sweet taste receptor): 4 µM

CCOC1C(=O)c2ccc(O)cc2OC1c1ccc(OC)c(O)c1 (stereo not drawn) [Compound 120, (tans)-7-hydroxy-2-(3-hydroxy-4-methoxyphenyl)-3-ethoxychroman-4-one]
EC50 (T1R sweet taste receptor): 8 µM
